These are literature values, as cited in patent publication US20100322892A1, “PESTICIDE COMPOSITIONS AND APPLICATORS” (BASF CORPORATION, priority 2009, published 2010).

Data set [1] relates to termites. Conditions: in vivo.
Data set [2] concerns ants. Conditions: in vivo.

As for `N#Cc1nn(-c2c(Cl)cc(C(F)(F)F)cc2Cl)c(N)c1[S+]([O-])C(F)(F)F` (racemic) [fipronil, (±)-5-amino-1-(2,6-dichloro-α,α,α-trifluoro-p-tolyl)-4-trifluoromethylsulfinylpyrazole-3-carbonitrile], the “Dose toxic to termites” value in data set [1] is 2 nanograms per termite. Moreover, the “Dose toxic to ants” value in data set [2] is on record as “about 1 nanogram per ant”.
